The record followed here is PubChem BioAssay (NCI).

Some test systems named below: TK-10 renal; MDA-MB-231 breast; UACC-62 melanoma; HS 578T breast; MALME-3M melanoma; SN12C renal; SF-539 CNS; HL-60(TB) leukemia; HOP-62 NSCLC; RPMI-8226 leukemia.
Common to all, as to experiment: NCI-60 cell line screen, 48 h

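Test compounds were applied to cells in 96-well plates for 48 hours at 5 doses. Here, GI50 denotes the concentration required for 50% inhibition of growth. TGI: concentration producing complete growth inhibition.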

Take `C=C(C)[C@@H]1CC[C@]2(C)[C@H](CC=C3[C@@H]4CC(C)(C)CC[C@]4(C(=O)OC)CC[C@]32C)[C@@]1(C)CC/C(N)=N/O`: the GI50 in the assay with TK-10 renal is 3.66 µM; in the assay on MDA-MB-231 breast, 1.61 µM; in the assay on UACC-62 melanoma it was 1.52 µM; in the assay on HS 578T breast it was 2.02 µM; in the assay on MALME-3M melanoma it was 1.69 µM; in the assay with SN12C renal, 1.66 µM. Moreover, the GI50 with SF-539 CNS is 1.8 µM; in the assay on HL-60(TB) leukemia it was 2.47 µM; in the assay on HOP-62 NSCLC it was 4.44 µM; in the assay with RPMI-8226 leukemia, 1.95 µM. The TGI came to 18.6 µM with TK-10 renal; 3.24 µM with MDA-MB-231 breast; 3.11 µM with UACC-62 melanoma; 4.97 µM in the assay on HS 578T breast; 3.33 µM in the assay on MALME-3M melanoma; 3.2 µM in the assay with SN12C renal. For the same compound, the TGI with SF-539 CNS is 3.95 µM; in the assay with HL-60(TB) leukemia it was 7.62 µM; in the assay with HOP-62 NSCLC, 20.6 µM; in the assay on RPMI-8226 leukemia it was 6.57 µM.

As to `COc1cc(/C=C\c2cc(/C=C\c3ccc(O)c(OC)c3)n(C(=O)Nc3ccc(C(F)(F)F)cc3)n2)ccc1O`, the GI50 was 4.13 µM in the assay on TK-10 renal; 3.06 µM with MDA-MB-231 breast; 2.02 µM in the assay on UACC-62 melanoma; 5.1 µM with HS 578T breast; 2.89 µM in the assay on MALME-3M melanoma; 2.73 µM in the assay with SN12C renal. Further, the GI50 in the assay with SF-539 CNS is 2.37 µM; in the assay with HL-60(TB) leukemia, 1.98 µM; in the assay on HOP-62 NSCLC it was 3.6 µM; in the assay on RPMI-8226 leukemia, 2.09 µM. In addition, the TGI was 14.8 µM with TK-10 renal; 9.62 µM with MDA-MB-231 breast; 4.76 µM in the assay on UACC-62 melanoma; 60.6 µM with HS 578T breast; 8.4 µM with MALME-3M melanoma; 9.9 µM in the assay with SN12C renal. Further, the TGI in the assay on SF-539 CNS worked out at 7.45 µM; with HL-60(TB) leukemia it was 6.45 µM; in the assay with HOP-62 NSCLC, 16.2 µM; in the assay with RPMI-8226 leukemia, 6.59 µM.

As for `O=c1cc(-c2ccccc2)oc2cc(OCc3cn(Cc4ccc(F)cc4)nn3)cc(O)c12`, the GI50 with TK-10 renal was 10.4 µM; with MDA-MB-231 breast it was 16.6 µM; in the assay on HS 578T breast, 6.26 µM; in the assay with MALME-3M melanoma, 5.06 µM; in the assay with SN12C renal, above 100 µM; with SF-539 CNS it was 5.17 µM. The GI50 in the assay with HL-60(TB) leukemia is above 100 µM; in the assay on HOP-62 NSCLC, 3.76 µM; in the assay with RPMI-8226 leukemia, above 100 µM. In addition, the TGI was 28.6 µM in the assay with TK-10 renal; above 100 µM in the assay on MDA-MB-231 breast; above 100 µM in the assay with HS 578T breast; above 100 µM in the assay with MALME-3M melanoma; above 100 µM in the assay on SN12C renal; above 100 µM in the assay on SF-539 CNS. In addition, the TGI in the assay with HL-60(TB) leukemia was above 100 µM; in the assay with HOP-62 NSCLC, 21.7 µM; with RPMI-8226 leukemia it was above 100 µM.

Take `COc1ccc(CNCCCN2C(=O)c3ccc4c5c(ccc(c35)C2=O)C(=O)N(CCCNCCCCNCCCN)C4=O)c(OC)c1OC`: the GI50 in the assay with TK-10 renal was 2.71 µM; with MDA-MB-231 breast it was 2.44 µM; in the assay with UACC-62 melanoma it was 1.48 µM; with HS 578T breast it was 7.52 µM; in the assay on MALME-3M melanoma, 1.21 µM; in the assay with SF-539 CNS, 2.23 µM. The GI50 is 2.73 µM in the assay on HL-60(TB) leukemia, 1.4 µM in the assay on HOP-62 NSCLC and 2.7 µM with RPMI-8226 leukemia. Besides, the TGI with TK-10 renal worked out at 12.8 µM; in the assay on MDA-MB-231 breast it was 18 µM; with UACC-62 melanoma it was 4.37 µM; in the assay on HS 578T breast it was 43.4 µM; with MALME-3M melanoma, 2.76 µM; in the assay on SF-539 CNS, 5.3 µM. Also, the TGI was determined as 13.1 µM in the assay on HL-60(TB) leukemia, 8.97 µM with HOP-62 NSCLC and 12.2 µM in the assay with RPMI-8226 leukemia.

For `COc1cc2c3c(n(CCCn4cccn4)c(=O)c2cc1OC)-c1cc2c(cc1C3=O)OCO2`, the GI50 with TK-10 renal was 35.1 µM; in the assay on MDA-MB-231 breast, 8.65 µM; with UACC-62 melanoma, 0.359 µM; in the assay on HS 578T breast, 22.7 µM; in the assay on MALME-3M melanoma, 9.4 µM; with SN12C renal, 0.463 µM. For the same compound, the GI50 with SF-539 CNS was 0.56 µM; in the assay with HOP-62 NSCLC, 0.449 µM; with RPMI-8226 leukemia it was 2.44 µM. The TGI in the assay with TK-10 renal is above 100 µM; with MDA-MB-231 breast it was 35.5 µM; in the assay on UACC-62 melanoma, 1.78 µM; in the assay on HS 578T breast it was above 90.7 µM; with MALME-3M melanoma, above 96.7 µM; with SN12C renal, 3.08 µM. Moreover, the figures for the TGI in the assay on SF-539 CNS, with HOP-62 NSCLC and with RPMI-8226 leukemia were 5.08 µM, 11.1 µM and 22.4 µM, respectively.

As for `CN1CCN(c2ccc3nc(-c4ccc5nc(-c6ccc(C(F)(F)F)cc6)[nH]c5c4)[nH]c3c2)CC1`, the GI50 is 2.11 µM in the assay with MDA-MB-231 breast; 1.58 µM with UACC-62 melanoma; 2.03 µM with HS 578T breast; 1.08 µM in the assay on MALME-3M melanoma; 1.9 µM in the assay with SN12C renal; 1.62 µM in the assay on SF-539 CNS. Moreover, the GI50 with HL-60(TB) leukemia was 1.47 µM; with HOP-62 NSCLC it was 1.63 µM; in the assay on RPMI-8226 leukemia, 2.06 µM. Also, the TGI in the assay with MDA-MB-231 breast worked out at 3.85 µM; in the assay on UACC-62 melanoma, 3.05 µM; in the assay on HS 578T breast it was 4.49 µM; in the assay with MALME-3M melanoma, 2.44 µM; in the assay on SN12C renal, 3.96 µM; in the assay on SF-539 CNS, 3.09 µM. Moreover, the TGI amounted to 3.45 µM in the assay with HL-60(TB) leukemia, 3.42 µM in the assay on HOP-62 NSCLC and 4.51 µM in the assay with RPMI-8226 leukemia.

`CNC1=C(Br)C(=O)C2=C(C1=O)C1C3=C(C(=O)C=CC3=O)C2c2ccccc21` (centres undefined): the GI50 in the assay on TK-10 renal is 10.8 µM; with MDA-MB-231 breast, 2.94 µM; with UACC-62 melanoma, 2.52 µM; with HS 578T breast, 12.7 µM; in the assay on MALME-3M melanoma it was 6.96 µM; in the assay with SN12C renal, 1.65 µM. Also, the GI50 in the assay with HL-60(TB) leukemia was 2.18 µM; in the assay on HOP-62 NSCLC, 7.68 µM. The TGI in the assay on TK-10 renal is 34.4 µM; with MDA-MB-231 breast it was 4.93 µM; in the assay on UACC-62 melanoma, 6.85 µM; in the assay on HS 578T breast, 70.3 µM; with MALME-3M melanoma, 16.2 µM; in the assay on SN12C renal, 3.21 µM. For the same compound, the TGI was above 100 µM in the assay with HL-60(TB) leukemia, 23.6 µM in the assay with HOP-62 NSCLC and above 31.4 µM in the assay with RPMI-8226 leukemia.
